Laboratory results: ChEMBL document CHEMBL5724914, “Linking interpersonal differences in gut microbiota composition and drug biotransformation activity” (2024)

Assays:
[1] = human gut metagenome, 24 h, 2 µM
[2] = (§1) The drug is tested on Z-024 corresponding to pig gut metagenome with ENA study accession number: PRJEB37062 and ENA sample accession number: ERS12561823 for biotransformation under anaerobic condition. The drug concentrations were measured over 9 timepoints collected between 0 and 24 hours of incubation by liquid-chromatography-coupled mass spectrometry (LC–MS); conditions: 2 µM
[3] = human gut metagenome, 24 h, 2 µM; remark: listed apart in the source
[4] = human gut metagenome, 24 h, 2 µM; remark: listed apart in the source
[5] = as §1, with “Z-001” for “Z-024”, “mouse” for “pig”, “ERS12561801” for “ERS12561823”; conditions: 2 µM
[6] = as §1, with “Z-012” for “Z-024”, “to” for “to pig gut”, “ERS12561812” for “ERS12561823”; conditions: 2 µM
[7] = human gut metagenome, 24 h, 2 µM; remark: listed apart in the source
[8] = as §1, with “Z-005” for “Z-024”, “to” for “to pig gut”, “ERS12561805” for “ERS12561823”; conditions: 2 µM
[9] = human gut metagenome, 24 h, 2 µM; remark: listed apart in the source
[10] = as §1, with “Z-030” for “Z-024”, “mouse” for “pig”, “ERS12561829” for “ERS12561823”; conditions: 2 µM
[11] = human gut metagenome, 24 h, 2 µM; remark: listed apart in the source
[12] = human gut metagenome, 24 h, 2 µM; remark: listed apart in the source
[13] = as §1, with “Z-029” for “Z-024”, “rat” for “pig”, “ERS12561828” for “ERS12561823”; conditions: 2 µM
[14] = as §1, with “WLS-090” for “Z-024”, “human” for “pig”, “ERS12561753” for “ERS12561823”; conditions: 2 µM
[15] = as §1, with “WLS-077” for “Z-024”, “human” for “pig”, “ERS12561750” for “ERS12561823”; conditions: 2 µM
[16] = as §1, with “WLS-082” for “Z-024”, “human” for “pig”, “ERS12561751” for “ERS12561823”; conditions: 2 µM
[17] = human gut metagenome, 24 h, 2 µM; remark: listed apart in the source
[18] = as §1, with “Z-007” for “Z-024”, “rat” for “pig”, “ERS12561807” for “ERS12561823”; conditions: 2 µM
[19] = human gut metagenome, 24 h, 2 µM; remark: listed apart in the source
[20] = human gut metagenome, 24 h, 2 µM; remark: listed apart in the source
Note: call rule not given here.

For CCCc1nc(C(C)(C)O)c(C(=O)OCc2oc(=O)oc2C)n1Cc1ccc(-c2ccccc2-c2nnn[nH]2)cc1 [OLMESARTAN MEDOXOMIL], the “Bacterial Biotransformation” value [1] was “Compound NOT metabolized”, the “Bacterial Biotransformation” value [2] was “Compound metabolized” and the “Bacterial Biotransformation” value [3] was “Compound metabolized”. For the same compound, the “Bacterial Biotransformation” value [4] was “Compound metabolized”, the “Bacterial Biotransformation” value [5] was “Compound metabolized” and the “Bacterial Biotransformation” value [6] was “Compound metabolized”. For the same compound, the “Bacterial Biotransformation” value [7] was “Compound metabolized”, the “Bacterial Biotransformation” value [8] was “Compound metabolized” and the “Bacterial Biotransformation” value [9] was “Compound metabolized”. The “Bacterial Biotransformation” value [10] was “Compound NOT metabolized”, the “Bacterial Biotransformation” value [11] was “Compound metabolized” and the “Bacterial Biotransformation” value [12] was “Compound metabolized”. For the same compound, the “Bacterial Biotransformation” value [13] was “Compound NOT metabolized”, the “Bacterial Biotransformation” value [14] was “Compound NOT metabolized” and the “Bacterial Biotransformation” value [15] was “Compound metabolized”. The “Bacterial Biotransformation” value [16] was “Compound metabolized”, the “Bacterial Biotransformation” value [17] was “Compound metabolized” and the “Bacterial Biotransformation” value [18] was “Compound metabolized”. The “Bacterial Biotransformation” value [19] was “Compound NOT metabolized” and the “Bacterial Biotransformation” value [20] was “Compound metabolized”.

For CC(CN1c2ccccc2Sc2ccccc21)N(C)C (stereo not given) [PROMETHAZINE], the “Bacterial Biotransformation” value [1] was “Compound metabolized”, the “Bacterial Biotransformation” value [2] was “Compound metabolized” and the “Bacterial Biotransformation” value [3] was “Compound NOT metabolized”. For the same compound, the “Bacterial Biotransformation” value [4] was “Compound NOT metabolized”, the “Bacterial Biotransformation” value [5] was “Compound NOT metabolized” and the “Bacterial Biotransformation” value [6] was “Compound NOT metabolized”. The “Bacterial Biotransformation” value [7] was “Compound NOT metabolized”, the “Bacterial Biotransformation” value [8] was “Compound NOT metabolized” and the “Bacterial Biotransformation” value [9] was “Compound NOT metabolized”. The “Bacterial Biotransformation” value [10] was “Compound NOT metabolized”, the “Bacterial Biotransformation” value [11] was “Compound metabolized” and the “Bacterial Biotransformation” value [12] was “Compound metabolized”. For the same compound, the “Bacterial Biotransformation” value [13] was “Compound NOT metabolized”, the “Bacterial Biotransformation” value [14] was “Compound metabolized” and the “Bacterial Biotransformation” value [15] was “Compound NOT metabolized”. The “Bacterial Biotransformation” value [16] was “Compound NOT metabolized”, the “Bacterial Biotransformation” value [17] was “Compound NOT metabolized” and the “Bacterial Biotransformation” value [18] was “Compound NOT metabolized”. For the same compound, the “Bacterial Biotransformation” value [19] was “Compound NOT metabolized” and the “Bacterial Biotransformation” value [20] was “Compound NOT metabolized”.

In the case of COc1ccccc1OCC(O)COC(N)=O (stereo not given) [METHOCARBAMOL], the “Bacterial Biotransformation” value [1] is reported as “Compound NOT metabolized”, the “Bacterial Biotransformation” value [2] is reported as “Compound NOT metabolized” and the “Bacterial Biotransformation” value [3] is reported as “Compound NOT metabolized”. The “Bacterial Biotransformation” value [4] was “Compound NOT metabolized”, the “Bacterial Biotransformation” value [5] was “Compound NOT metabolized” and the “Bacterial Biotransformation” value [6] was “Compound NOT metabolized”. For the same compound, the “Bacterial Biotransformation” value [7] was “Compound NOT metabolized”, the “Bacterial Biotransformation” value [8] was “Compound NOT metabolized” and the “Bacterial Biotransformation” value [9] was “Compound NOT metabolized”. For the same compound, the “Bacterial Biotransformation” value [10] was “Compound NOT metabolized”, the “Bacterial Biotransformation” value [11] was “Compound NOT metabolized” and the “Bacterial Biotransformation” value [12] was “Compound NOT metabolized”. For the same compound, the “Bacterial Biotransformation” value [13] was “Compound NOT metabolized”, the “Bacterial Biotransformation” value [14] was “Compound NOT metabolized” and the “Bacterial Biotransformation” value [15] was “Compound NOT metabolized”. For the same compound, the “Bacterial Biotransformation” value [16] was “Compound NOT metabolized”, the “Bacterial Biotransformation” value [17] was “Compound NOT metabolized” and the “Bacterial Biotransformation” value [18] was “Compound NOT metabolized”. For the same compound, the “Bacterial Biotransformation” value [19] was “Compound NOT metabolized” and the “Bacterial Biotransformation” value [20] was “Compound NOT metabolized”.

For C[C@@H](CO)NC(=O)[C@@H]1C=C2c3cccc4[nH]cc(c34)C[C@H]2N(C)C1.O=C(O)/C=C\C(=O)O [ERGONOVINE MALEATE], the “Bacterial Biotransformation” value [1] was “Compound metabolized”, the “Bacterial Biotransformation” value [2] was “Compound NOT metabolized” and the “Bacterial Biotransformation” value [3] was “Compound metabolized”. The “Bacterial Biotransformation” value [4] was “Compound NOT metabolized”, the “Bacterial Biotransformation” value [5] was “Compound NOT metabolized” and the “Bacterial Biotransformation” value [6] was “Compound NOT metabolized”. For the same compound, the “Bacterial Biotransformation” value [7] was “Compound NOT metabolized”, the “Bacterial Biotransformation” value [8] was “Compound NOT metabolized” and the “Bacterial Biotransformation” value [9] was “Compound NOT metabolized”. The “Bacterial Biotransformation” value [10] was “Compound NOT metabolized”, the “Bacterial Biotransformation” value [11] was “Compound NOT metabolized” and the “Bacterial Biotransformation” value [12] was “Compound NOT metabolized”. For the same compound, the “Bacterial Biotransformation” value [13] was “Compound NOT metabolized”, the “Bacterial Biotransformation” value [14] was “Compound metabolized” and the “Bacterial Biotransformation” value [15] was “Compound metabolized”. For the same compound, the “Bacterial Biotransformation” value [16] was “Compound metabolized”, the “Bacterial Biotransformation” value [17] was “Compound metabolized” and the “Bacterial Biotransformation” value [18] was “Compound NOT metabolized”. The “Bacterial Biotransformation” value [19] was “Compound NOT metabolized” and the “Bacterial Biotransformation” value [20] was “Compound metabolized”.

With OCCOCCN1CCN(C2=Nc3ccccc3Sc3ccccc32)CC1 [QUETIAPINE] the “Bacterial Biotransformation” value [1] was “Compound NOT metabolized”, the “Bacterial Biotransformation” value [2] was “Compound metabolized” and the “Bacterial Biotransformation” value [3] was “Compound metabolized”. For the same compound, the “Bacterial Biotransformation” value [4] was “Compound NOT metabolized”, the “Bacterial Biotransformation” value [5] was “Compound NOT metabolized” and the “Bacterial Biotransformation” value [6] was “Compound NOT metabolized”. The “Bacterial Biotransformation” value [7] was “Compound NOT metabolized”, the “Bacterial Biotransformation” value [8] was “Compound NOT metabolized” and the “Bacterial Biotransformation” value [9] was “Compound metabolized”. For the same compound, the “Bacterial Biotransformation” value [10] was “Compound NOT metabolized”, the “Bacterial Biotransformation” value [11] was “Compound metabolized” and the “Bacterial Biotransformation” value [12] was “Compound metabolized”. The “Bacterial Biotransformation” value [13] was “Compound NOT metabolized”, the “Bacterial Biotransformation” value [14] was “Compound metabolized” and the “Bacterial Biotransformation” value [15] was “Compound NOT metabolized”. For the same compound, the “Bacterial Biotransformation” value [16] was “Compound NOT metabolized”, the “Bacterial Biotransformation” value [17] was “Compound NOT metabolized” and the “Bacterial Biotransformation” value [18] was “Compound NOT metabolized”. For the same compound, the “Bacterial Biotransformation” value [19] was “Compound NOT metabolized” and the “Bacterial Biotransformation” value [20] was “Compound metabolized”.

For COc1cc2nc(N(C)CCCNC(=O)C3CCCO3)nc(N)c2cc1OC (stereo not given) [ALFUZOSIN], the “Bacterial Biotransformation” value [1] was “Compound NOT metabolized”, the “Bacterial Biotransformation” value [2] was “Compound NOT metabolized” and the “Bacterial Biotransformation” value [3] was “Compound NOT metabolized”. For the same compound, the “Bacterial Biotransformation” value [4] was “Compound NOT metabolized”, the “Bacterial Biotransformation” value [5] was “Compound metabolized” and the “Bacterial Biotransformation” value [6] was “Compound NOT metabolized”. The “Bacterial Biotransformation” value [7] was “Compound metabolized”, the “Bacterial Biotransformation” value [8] was “Compound NOT metabolized” and the “Bacterial Biotransformation” value [9] was “Compound metabolized”. For the same compound, the “Bacterial Biotransformation” value [10] was “Compound NOT metabolized”, the “Bacterial Biotransformation” value [11] was “Compound metabolized” and the “Bacterial Biotransformation” value [12] was “Compound metabolized”. For the same compound, the “Bacterial Biotransformation” value [13] was “Compound NOT metabolized”, the “Bacterial Biotransformation” value [14] was “Compound metabolized” and the “Bacterial Biotransformation” value [15] was “Compound NOT metabolized”. For the same compound, the “Bacterial Biotransformation” value [16] was “Compound metabolized”, the “Bacterial Biotransformation” value [17] was “Compound metabolized” and the “Bacterial Biotransformation” value [18] was “Compound NOT metabolized”. For the same compound, the “Bacterial Biotransformation” value [19] was “Compound NOT metabolized” and the “Bacterial Biotransformation” value [20] was “Compound metabolized”.
